According to US20200360331A1, “COMPOSITIONS COMPRISING 15-HEPE AND/OR 15-HETrE AND METHODS OF TREATING OR PREVENTING CARDIOMETABOLIC DISEASE, METABOLIC SYNDROME, AND/OR RELATED DISEASES” (Afimmune Limited, priority 2019, published 2020):
Entries after “also recorded” stand apart in the source; their conditions may differ.

How the values were obtained:
Collagen Type 1 = assay: BDL study: quantitative RT-PCR of liver, Collagen Type 1; assay type: in vivo, C57BL/6J mice; conditions: BDL mice liver
Protocol: Quantitative RT-PCR: Total ribonucleic acid (RNA) was extracted from liver samples using RNAiso (Takara Bio, Japan) according to the manufacturer's instructions. One μg of RNA was reverse-transcribed using a reaction mixture containing 4.4 mM magnesium chloride (MgCl2) (F. Hoffmann-La Roche, Switzerland), 40 U RNase inhibitor (Toyobo, Japan), 0.5 mM dNTP (Promega, USA), 6.28 μM random hexamer (Promega), 5× first strand buffer (Promega), 10 mM dithiothreitol (Invitrogen, USA) and 200 U MMLV-RT (Invitrogen) in a final volume of 20 μL. The reaction was carried out for 1 hour at 37° C., followed by 5 minutes at 99° C. Real-time PCR was performed using real-time PCR DICE and TB Green™ Premix Ex Taq™ II (Takara Bio). To calculate the relative mRNA expression level, the expression of each gene (α-SMA, TIMP-1, TGF-β and Collagen Type 1) was normalized to that of reference gene 36B4 (gene symbol: Rplp0). Information regarding the PCR-primer sets and the plate layout are described in Tables 8 and 9.

[1] = system: TβR-I (type I TGF-β receptor); assay: Sucrose density gradient analysis in Mv1Lu cells, TβR-I; assay type: cell-based, mink
Protocol: (§1) Sucrose gradient ultracentrifugation and confocal microscopy were used to identify 15-HEPE induced microdomain translocation of TGF-β receptors by sucrose. Sucrose density gradient analysis of TGF-β receptors was conducted in the plasma membranes of Mv1Lu cells (mink lung epithelial cell) treated with 100 μM of 15-HEPE and an equal volume of DMSO (dimethyl sulfoxide) at 37° C. for 0, 1, 4, and 24 hours, and the cell lysates from these treated cells were subjected to sucrose density gradient ultracentrifugation. The sucrose gradient fractions were then analyzed by Western blot analysis using anti-TβR-I (type I TGF-β receptor), anti-TβR-II (type II TGF-β receptor), anti-TβR-III (type III TGF-β receptor, betaglycan), anti-EGFR (epidermal growth factor receptor), and anti-caveolin-1 antibodies. The lipid raft/caveolae, and non-lipid raft microdomain localization of TβR-I, TβR-II, TβR-III, EGFR and caveolin-1 in the plasma membrane of untreated cells or cells treated with 15-HEPE were assessed to determine the effects of 15-HEPE on the membrane microdomain localization of the TGF-β receptors. […]

caveolin-1 = assay: Sucrose density gradient analysis in Mv1Lu cells, caveolin-1; assay type: cell-based, mink; conditions: 100 μM, 0, 1, 4 and 24 hours
Protocol: as §1

NAFLD patients [2] = assay: Phase IIa NAFLD study: lipidomics; assay type: in vivo, human; conditions: 2 g
From the text: Exploratory analysis: The exploratory analysis included analysis of lipid and metabolic parameters including total cholesterol, triglycerides, very low-density lipoprotein cholesterol (VLDL-C), low density lipoprotein cholesterol (LDL-C), high density lipoprotein cholesterol (HDL-C), non-high-density lipoprotein cholesterol (non-HDL-C), remnant-like particle cholesterol (RLP-C), fasting glucose, insulin, free fatty acids and hemoglobin A1C (HbA1C). Additional exploratory analysis included high throughput lipidomics and proteomics. […] The study was planned to include 96 evaluable patients with 32 patients randomized per treatment group. […] Exploratory analysis: The exploratory analysis included analysis of lipid and metabolic parameters including total cholesterol, triglycerides, very low-density lipoprotein cholesterol (VLDL-C), low density lipoprotein cholesterol (LDL-C), high density lipoprotein cholesterol (HDL-C), non-high-density lipoprotein cholesterol (non-HDL-C), remnant-like particle cholesterol (RLP-C), fasting glucose, insulin, free fatty acids and hemoglobin A1C (HbA1C). Additional exploratory analysis included high throughput lipidomics and proteomics.

NAFLD patients [3] = assay: Phase IIa NAFLD study: proteomics of blood samples; assay type: in vivo, human
From the text: The study was planned to include 96 evaluable patients with 32 patients randomized per treatment group. […] Exploratory analysis: The exploratory analysis included analysis of lipid and metabolic parameters including total cholesterol, triglycerides, very low-density lipoprotein cholesterol (VLDL-C), low density lipoprotein cholesterol (LDL-C), high density lipoprotein cholesterol (HDL-C), non-high-density lipoprotein cholesterol (non-HDL-C), remnant-like particle cholesterol (RLP-C), fasting glucose, insulin, free fatty acids and hemoglobin A1C (HbA1C). Additional exploratory analysis included high throughput lipidomics and proteomics.

CC/C=C\CC(O)/C=C/C=C\C/C=C\C/C=C\CCCC(=O)O (stereo not drawn) [DS102, 15-hydroxy-eicosa-5Z,8Z,11Z,13E,17Z-pentaenoic acid]
Collagen Type 1 mRNA expression level compared with the Vehicle group (Collagen Type 1; 500 mg/kg): tended to decrease; also recorded: trend approaching significance | Collagen Type 1 mRNA expression level vs Vehicle group (Collagen Type 1; DS102 treatment groups): no significant differences | Collagen Type 1 gene expression (Collagen Type 1; relative mRNA normalized to 36B4, 50 mg/kg PO QD Day 0-13): 4.94 ± 2.76 | Collagen Type 1 gene expression (Collagen Type 1; relative mRNA normalized to 36B4, 250 mg/kg PO QD Day 0-13): 4.21 ± 1.90 | Collagen Type 1 gene expression (Collagen Type 1; relative mRNA normalized to 36B4, 500 mg/kg PO QD Day 0-13): 2.51 ± 1.39 | abundance of TβR-I proteins ([1]; 100 μM, 0, 1, 4 and 24 hours): did not affect the abundance of TβR-I proteins | translocation of TβR-I to lipid-raft ([1]; 100 μM, 24 hours): induced translocation of TβR-I to lipid-raft | localization and abundance of caveolin-1 (caveolin-1): did not change the localization and abundance | levels of multiple glycerophospholipid groups (NAFLD patients [2]): significantly increased | levels of multiple hepatotoxic diglycerides (NAFLD patients [2]): significantly decreased | TR protein (NAFLD patients [3]; 1 g): significant reductions | NASH drug development targets CCR2/5 signaling, Galectin3, AOC3 (NAFLD patients [3]; 2 g): decreased | number of markers (inflammation, fibrosis, lipid metabolism, apoptosis, chemotaxis) significantly downregulated (NAFLD patients [3]; 2 g, panel of greater than 350 protein biomarkers): over 150 | inflammatory and pro-fibrotic proteins (protein expression) (NAFLD patients [3]; 2 g, Bonferroni: PAI-1, TIMP-1, DPP4, TLT2, CCL16, MCP-1, SAA4, PI3/Elafin, TR, LILRB1, TNRSF11A, linear model: TLT2, AOC3, PRSS2): decreased | expression of multiple circulating chemokines (NAFLD patients [3]; NAFLD patients): decreased | expression of multiple proteins associated with increased cardiovascular risk (NAFLD patients [3]; NAFLD patients): decreased | expression of multiple tumor necrosis factor receptor superfamily members (NAFLD patients [3]; NAFLD patients): decreased | expression of multiple vascular adhesion molecules (NAFLD patients [3]; NAFLD patients): decreased
